Results from ChEMBL document CHEMBL1201862, “PubChem BioAssay data set” (2004).
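48-hour exposure; five concentrations; linearly interpolated endpoints. Here, GI50 denotes the concentration required for 50% inhibition of growth.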 The source made the active and inactive calls. Cut-off read from the data, not from the text of the source: active = GI50 up to about 1.1 µM and inactive = higher.

Columns and labels:
Assay in all cases: inhibition of tumour cell growth, NCI panel, 48 h
LXFL 529 = system: LXFL 529
SNB-78 = system: SNB-78
SK-MEL-2 = system: SK-MEL-2
KM12 = system: KM12
RXF 631 = system: RXF 631
SK-MEL-28 = system: SK-MEL-28
786-0 = system: 786-0
Malme-3M = system: Malme-3M
HCC 2998 = system: HCC 2998
HT-29 = system: HT-29
U-251 = system: U-251
ACHN = system: ACHN
K562 = system: K562
CCRF-CEM = system: CCRF-CEM
OVCAR-8 = system: OVCAR-8
CAKI-1 = system: CAKI-1
IGROV-1 = system: IGROV-1
SW-620 = system: SW-620
HL-60 = system: HL-60
UACC-257 = system: UACC-257
RXF 393 = system: RXF 393
UO-31 = system: UO-31
XF498 = system: XF498
LOX IMVI = system: LOX IMVI
SF-268 = system: SF-268
SR = system: SR
NCI-H226 = system: NCI-H226
A549 = system: A549
HCT-15 = system: HCT-15
M19-MEL = system: M19-MEL
SN12C = system: SN12C
RPMI-8226 = system: RPMI-8226
OVCAR-5 = system: OVCAR-5
HOP-62 = system: HOP-62
HCT-116 = system: HCT-116
NCI-H460 = system: NCI-H460
SF-539 = system: SF-539
EKVX = system: EKVX
UACC-62 = system: UACC-62
DLD-1 = system: DLD-1
SNB-75 = system: SNB-75
SF-295 = system: SF-295
SNB-19 = system: SNB-19
NCI-H522 = system: NCI-H522
SK-MEL-5 = system: SK-MEL-5
KM-20L2 = system: KM-20L2
COLO 205 = system: COLO 205
OVCAR-3 = system: OVCAR-3
OVCAR-4 = system: OVCAR-4
HOP-18 = system: HOP-18
MOLT-4 = system: MOLT-4
M14 = system: M14
TK-10 = system: TK-10
SK-OV-3 = system: SK-OV-3
DMS-273 = system: DMS-273
A498 = system: A498
HOP-92 = system: HOP-92
NCI-H23 = system: NCI-H23

SMILES: O=[N+]([O-])c1ccc(-c2noc(-c3ccccc3)c2C2=NCCN2)cc1
- GI50 (LXFL 529): > 100 µM (inactive)
- GI50 (SNB-78): 39.2 µM (inactive)
- GI50 (SK-MEL-2): > 100 µM (inactive)
- GI50 (KM12): > 100 µM (inactive)
- GI50 (RXF 631): 60.3 µM (inactive)
- GI50 (SK-MEL-28): > 100 µM (inactive)
- GI50 (786-0): 54 µM (inactive)
- GI50 (Malme-3M): > 100 µM (inactive)
- GI50 (HCC 2998): > 100 µM (inactive)
- GI50 (HT-29): 52.1 µM (inactive)
- GI50 (U-251): 84.5 µM (inactive)
- GI50 (ACHN): > 100 µM (inactive)
- GI50 (K562): > 100 µM (inactive)
- GI50 (CCRF-CEM): > 100 µM (inactive)
- GI50 (OVCAR-8): > 100 µM (inactive)
- GI50 (CAKI-1): 40.3 µM (inactive)
- GI50 (IGROV-1): > 100 µM (inactive)
- GI50 (SW-620): > 100 µM (inactive)
- GI50 (HL-60): 55.3 µM (inactive)
- GI50 (UACC-257): 41.2 µM (inactive)
- GI50 (RXF 393): 38.6 µM (inactive)
- GI50 (UO-31): 24.9 µM (inactive)
- GI50 (XF498): 70.6 µM (inactive)
- GI50 (LOX IMVI): 71 µM (inactive)
- GI50 (SF-268): 63.2 µM (inactive)
- GI50 (SR): 81.8 µM (inactive)
- GI50 (NCI-H226): 75.2 µM (inactive)
- GI50 (A549): > 100 µM (inactive)
- GI50 (HCT-15): > 100 µM
- GI50 (M19-MEL): > 100 µM (inactive)
- GI50 (SN12C): > 100 µM (inactive)
- GI50 (RPMI-8226): > 100 µM (inactive)
- GI50 (OVCAR-5): > 100 µM (inactive)
- GI50 (HOP-62): 29.9 µM (inactive)
- GI50 (HCT-116): 30.1 µM (inactive)
- GI50 (NCI-H460): > 100 µM (inactive)
- GI50 (SF-539): 42.7 µM (inactive)
- GI50 (EKVX): > 100 µM (inactive)
- GI50 (UACC-62): > 100 µM (inactive)
- GI50 (DLD-1): > 100 µM (inactive)
- GI50 (SNB-75): 68.5 µM (inactive)
- GI50 (SF-295): 44.7 µM (inactive)
- GI50 (SNB-19): 53.2 µM (inactive)
- GI50 (NCI-H522): 20.5 µM (inactive)
- GI50 (SK-MEL-5): 12.9 µM (inactive)
- GI50 (KM-20L2): 40.5 µM (inactive)
- GI50 (COLO 205): 45.5 µM (inactive)
- GI50 (OVCAR-3): 28.6 µM (inactive)
- GI50 (OVCAR-4): 77.6 µM (inactive)
- GI50 (HOP-18): 21.1 µM (inactive)
- GI50 (MOLT-4): > 100 µM (inactive)
- GI50 (M14): 87.9 µM (inactive)

SMILES: CCCCCCCCCCOC(=O)NCCC
- GI50 (LXFL 529): 38 µM (inactive)
- GI50 (TK-10): 34.5 µM (inactive)
- GI50 (SK-MEL-2): 16.7 µM (inactive)
- GI50 (KM12): 36.1 µM (inactive)
- GI50 (RXF 631): 27.6 µM (inactive)
- GI50 (SK-MEL-28): 28.8 µM (inactive)
- GI50 (786-0): 28.1 µM (inactive)
- GI50 (Malme-3M): 21.4 µM (inactive)
- GI50 (HCC 2998): 18.2 µM (inactive)
- GI50 (HT-29): 21.4 µM (inactive)
- GI50 (U-251): 24.9 µM (inactive)
- GI50 (ACHN): 28.8 µM (inactive)
- GI50 (K562): 29.9 µM (inactive)
- GI50 (CCRF-CEM): 18.5 µM (inactive)
- GI50 (OVCAR-8): 30.5 µM (inactive)
- GI50 (CAKI-1): 35.5 µM (inactive)
- GI50 (IGROV-1): 64.1 µM (inactive)
- GI50 (SW-620): 48.6 µM (inactive)
- GI50 (HL-60): 13.9 µM (inactive)
- GI50 (UACC-257): 30.2 µM (inactive)
- GI50 (RXF 393): 15.9 µM (inactive)
- GI50 (UO-31): 16.2 µM (inactive)
- GI50 (XF498): 18.2 µM (inactive)
- GI50 (SK-OV-3): 54.8 µM (inactive)
- GI50 (LOX IMVI): 18.2 µM (inactive)
- GI50 (DMS-273): 20.6 µM (inactive)
- GI50 (A498): 31.7 µM (inactive)
- GI50 (SF-268): 29.1 µM (inactive)
- GI50 (A549): 36.6 µM (inactive)
- GI50 (HCT-15): 21 µM
- GI50 (M19-MEL): 34.5 µM (inactive)
- GI50 (SN12C): 28 µM (inactive)
- GI50 (RPMI-8226): 17.9 µM (inactive)
- GI50 (OVCAR-5): 24.4 µM (inactive)
- GI50 (NCI-H460): 25.8 µM (inactive)
- GI50 (SF-539): 59.7 µM (inactive)
- GI50 (EKVX): 25.9 µM (inactive)
- GI50 (UACC-62): 38.5 µM (inactive)
- GI50 (DLD-1): 34.8 µM (inactive)
- GI50 (SNB-75): 49.2 µM (inactive)
- GI50 (SF-295): 38.5 µM (inactive)
- GI50 (HOP-92): 11.6 µM (inactive)
- GI50 (SNB-19): 34.4 µM (inactive)
- GI50 (NCI-H522): 18.7 µM (inactive)
- GI50 (SK-MEL-5): 23.9 µM (inactive)
- GI50 (KM-20L2): 22.8 µM (inactive)
- GI50 (NCI-H23): 33.1 µM (inactive)
- GI50 (COLO 205): 40.5 µM (inactive)
- GI50 (OVCAR-3): 33.3 µM (inactive)
- GI50 (OVCAR-4): 21.6 µM (inactive)
- GI50 (HOP-18): 26.7 µM (inactive)
- GI50 (MOLT-4): 17.2 µM (inactive)
- GI50 (M14): 29.4 µM (inactive)
